Measurements taken from PubChem BioAssay AID488890 (Southern Research Specialized Biocontainment Screening …, 2010).
Results filed as inconclusive are left out. Active and inactive are the calls of the source. How the calls were made is not given here.

What follows are molecules tested on Mycobacterium tuberculosis non-replicating, growth inhibition (assay: growth inhibition of non-replicating M. tuberculosis (AID 488890)).

Structure (SMILES) | IC50
COC(=O)CCn1c(C)cc(C(=O)COc2ccccc2C(N)=O)c1C | 9.88 µM
c1ccc(OCc2nn3c(-c4ccccn4)nnc3s2)cc1 | 23 µM (inactive)
Cc1cc(C)nc(-n2nc(C)cc2Nc2ccccc2)n1 | 5.25 µM
CN(C)CC/C=C1\c2cc(Cl)ccc2Sc2cc(F)c(F)cc21 | 20.2 µM (inactive)
Cc1ccccc1NC(=O)c1ccc([N+](=O)[O-])o1 | 7.05 µM
CCOC(=O)c1c(C)nc2c3ccccc3ccn12 | 13.3 µM (inactive)
CCOC(=O)N1CCC(NS(=O)(=O)c2cc3c(cc2Cl)NC(=O)CO3)CC1 | 4.67 µM
N=c1n(CCN2CCCCC2)c2ccccc2n1CC(=O)c1ccc(Cl)c(Cl)c1 | 21.5 µM (inactive)
COc1ccc(C2=NOC(COC(=O)c3ccc4ccccc4n3)C2)cc1 (stereo not given) | 5.43 µM
CCc1ccc(NC(=O)C(=O)NNC(=O)c2cccc(OC)c2)cc1 | 1.06 µM
O=c1oc2ccccc2c(Nc2ccccc2O)c1[N+](=O)[O-] | 8.58 µM
O=C(N/N=C/c1cccc2cccnc12)c1ccccc1O | 3.16 µM
CCn1c(NC(=O)c2nn(C)cc2Br)nc2ccccc21 | 4.97 µM
O=C(c1ccccc1)C(CN1CCCC1)c1ccccc1 (stereo not given) | 5.51 µM
CCOC(=O)N1CCN(Cc2cc(Cl)c3cccnc3c2O)CC1 | 3.55 µM
CC(C)(C)c1ccc(C(=O)N2CCCC2)s1 | 1.66 µM
Cc1[nH]n2c(=O)c3c(nc2c1-c1ccc(Cl)cc1)CCC3 | 3.4 µM
COc1cc(CNCCc2ccccc2)cc(Br)c1OCC(=O)Nc1ccccc1C | 8.58 µM
COc1cccc2sc(Nc3nnc(-c4cccs4)o3)nc12 | 4.87 µM
CC(OC(=O)c1ccc([N+](=O)[O-])s1)C(=O)NC1CCCCC1C (stereo not given) | 0.24 µM
Cc1ccc(CNC(=O)c2ccc([N+](=O)[O-])o2)cc1 | 0.46 µM
CC(NC(=O)c1cc([N+](=O)[O-])cc([N+](=O)[O-])c1)c1ccc(-n2ccnc2)cc1 (stereo not given) | 5.42 µM

Structure (SMILES) | IC50
O=C(C/C=N\OCc1ccc([N+](=O)[O-])cc1)Nc1ccc(Cl)cc1 | 5.29 µM
COc1ccc2nc(C)cc(N/N=C/c3ccc(F)cc3)c2c1 | 7.75 µM
O=[N+]([O-])c1ccc(Nc2ccccc2)c2nonc12 | 2.87 µM
CC(C)Cn1c(N)c(C(=O)COC(=O)c2ccc([N+](=O)[O-])o2)c(=O)n(C)c1=O | 2.86 µM
Cc1cccc(NC(=O)COC(=O)CCc2c[nH]c3ccccc23)c1C | 6.12 µM
Cc1nnc(N/N=C/c2cccc(OCc3ccc(Cl)c(Cl)c3)c2)n1N | 3.37 µM
C=CCNCC(=O)N1N=C(c2ccc3ccccc3c2)CC1c1ccc(OC)cc1 (stereo not given) | 20.6 µM (inactive)
CCOC(=O)COc1ccc(C(=O)c2ccccc2)c(O)c1 | 1.24 µM
Cc1ccc(C2=N/C(=C\c3cccnc3)C(=O)O2)cc1 | 6.58 µM
COc1cc(N=c2ssnc2Cl)cc(OC)c1OC | 17.9 µM (inactive)
Cc1nc2ccc(Cl)cc2nc(C)/c1=N\O | 14.4 µM (inactive)
COc1cc(C(=O)ON=C2C=C(C)C(=O)C(C)=C2)cc(OC)c1OC | 48.6 µM (inactive)
CCOc1ccc(-c2nc3ccccc3c(=O)o2)cc1 | 6.27 µM
Cc1cc(Br)ccc1OCCCCN1CCC(C)CC1 | 9.63 µM
COc1ccc(Nc2ccccc2N)cc1 | 2.72 µM
O=C(Nc1nnc(-c2ccccc2Cl)o1)c1ccc(S(=O)(=O)N2CCCCCC2)cc1 | 8.7 µM
CCCC(O)(CCC)C(=O)NNc1ccc(C)cc1 | 5.94 µM
COC(=O)CCS(=O)(=O)c1nc(-c2ccccc2)cc(C(F)(F)F)n1 | 2.25 µM
O=C(Cc1c(F)cccc1Cl)Nc1ncc([N+](=O)[O-])s1 | 12.1 µM (inactive)
O=C(OCc1nnc(-c2ccccc2)o1)c1cc([N+](=O)[O-])ccc1Cl | 6.28 µM
CCC(=O)Nc1nc2ccccc2n1Cc1ccccc1 | 4.86 µM
COC(=O)c1cc(/C=C/c2ccccc2)on1 | 2.18 µM

Structure (SMILES) | IC50
O=C(CC(=O)c1ccccc1O)c1cccc(F)c1 | 8.89 µM
O=C(NC(=S)N1CCN(Cc2ccc3c(c2)OCO3)CC1)c1ccc(Cl)cc1 | 33.4 µM (inactive)
O=[N+]([O-])c1cc(Cl)cc(/C=N/Nc2nc3ccccc3s2)c1O | 1.8 µM
c1ccc(CSc2ccc(-c3ccccn3)nn2)cc1 | 8.02 µM
CCCn1nnnc1NCc1ccc(C(C)C)cc1 | 5.89 µM
O=C(N/N=C1\CCCc2c1[nH]c1ccc(Cl)cc21)c1ccncc1 | 1.78 µM
Nc1nc2ccccc2n1CCOc1ccc(Br)cc1 | 21.5 µM (inactive)
O=C(NCCc1c[nH]c2ccccc12)c1cc2ccccc2oc1=O | 4.78 µM
O=C(N=Nc1c(O)[nH]c2ccc(Br)cc12)c1ccccc1-n1cccc1 | 5.94 µM
CC1CCCN(CCSc2ccc(Cl)cc2)C1 (stereo not given) | 5.18 µM
O=C(Nc1ccccc1N1CCCC1)c1cccc(F)c1 | 24.4 µM (inactive)
CC(C)Cc1cc(C(=O)Nc2ccc(F)cc2F)no1 | 2.34 µM
Cc1ccc(Sc2ncccc2N)cc1 | 41.3 µM (inactive)
CCOC(=O)c1c(C)n(C)c2ccc(OC(C)C(=O)OC)cc12 (stereo not given) | 14.2 µM (inactive)
O=C(OCn1nnc2ccccc2c1=O)c1cccs1 | 12.4 µM (inactive)
O=C(N/N=C/C=C/c1ccco1)c1ccncc1 | 1.19 µM
O=C(NCc1ccc2c(c1)OCO2)c1ccc(Cl)s1 | 1.73 µM
CCOc1ccc(C(=O)Nc2nc3ccccc3[nH]2)cc1OCC | 9.11 µM
Cc1cc(OCC(=O)Nc2ccncc2)ccc1Br | 3.47 µM
CCCCCCn1c(=O)c(C(=O)Nc2nnc(C)s2)c(O)c2ccccc21 | 4.29 µM
CCN1CCN(c2ccc(S(=O)(=O)N3CCCCC3)cc2NC(=O)c2ccc([N+](=O)[O-])o2)CC1 | 12.6 µM (inactive)
COc1ccc2c([N+](=O)[O-])c(N3CCCC3)[nH]c2c1 | 36 µM (inactive)

Structure (SMILES) | IC50
Cc1cccc(CC(=O)NCC2CCCCC2)c1 | 16.7 µM (inactive)
O=C(Nc1ccc(Cl)cc1Cl)c1cccc(N2C(=O)C=CC2=O)c1 | 11.6 µM (inactive)
CCCn1c(NC(=O)c2ccc([N+](=O)[O-])o2)nc2ccccc21 | 7.64 µM
Brc1ccc(CSc2nnc(-c3ccco3)o2)cc1 | 0.28 µM
CCOc1cc(-c2sc(Nc3cc(C)ccc3OC)n[n+]2-c2ccccc2)ccc1OC | 4.29 µM
CN1CCC(O)(c2ccccc2)C(C(=O)c2ccccc2)C1 (stereo not given) | 4.85 µM
CCC1CCC(c2nnc(-c3ccc([N+](=O)[O-])cc3)o2)CC1 (stereo not given) | < 0.1 µM
CCOC(=O)Cn1c(C)c(Br)c(=O)c2cccc(C)c21 | 3.76 µM
Cc1c(Cl)cccc1-c1ccc(CNCc2ccccn2)o1 | 4.58 µM
Cn1c(CNc2ccccc2O)nc2ccccc21 | 5.64 µM
CN1C2CCC1/C(=C/c1ccccn1)C(=O)/C2=C\c1ccccn1 | 16.3 µM (inactive)
O=C1/C(=C/c2cccs2)COc2ccccc21 | 13.9 µM (inactive)
CC1=CN2C(=N)/C(=C/c3ccc([N+](=O)[O-])o3)C(=O)N=C2S1 | 12.8 µM (inactive)
O=C(N/N=C/C(Br)=C/c1ccccc1)c1ccncc1 | 3.89 µM
CCC(C)(C)c1ccc(OCC(=O)Nc2ccncc2)cc1 | 4.38 µM
COc1ccc(-c2nnc(SCC(C)C)o2)cc1 | 0.9 µM
O=C(Nc1nnc(-c2ccc(Cl)cc2)o1)c1ccccc1Br | 0.58 µM
O=[N+]([O-])c1ccc(CNc2cccc(Cl)c2)s1 | 43.7 µM (inactive)
C=CCn1c(C)cc(C2=NNC(=NCc3ccccc3)SC2)c1C | 7.71 µM
